What follows are molecules tested on human cardiac fibroblasts (assay: Cell-based inhibition assay of generation of procollagen I C-terminal propeptide (PICP), PICP ELISA). Conditions: Cardiac fibroblast; human cardiac fibroblasts, crowding media, 24 to 48 hr, PICP ELISA of media; read-out: pIC50, PICP cellular inhibition assay (converted).
Protocol: Cell-Based Inhibition Assay of Generation of Procollagen I C-Terminal Propeptide (PICP) and Mature Collagen:
An adaptation of the collagen deposition assay described by Chen, C. Z. C., et al., British Journal of Pharmacology, 2009, 158, 1196-1209 was used to examine effect of compounds on procollagen I processing and collagen deposition. In the adapted assay, human cardiac fibroblasts were utilized. Processing of procollagen I was determined by a PICP ELISA assay and deposition of mature collagen was determined by immunostaining.
Human cardiac fibroblasts were cultured and maintained until passage 6 in FGM-3 media (Lonza, #CC-3132) in a 37° C. humidified incubator with 5% CO2. They were then seeded in 96-well black wall, clear bottom plates at 10,000 to 15,000 cells per well in eagle's minimum essential media (EMEM, ATCC #30-2003) containing 10% fetal bovine serum (FBS, Life Technologies #10082147), 1% Glutamax (Life Technologies #35050061) and 1% Penicillin and Streptomycin (Life Technologies #15070063). These cultures were placed in 37° C. incubator. The next day, media were removed by aspiration and cells were rinsed with phosphate buffered saline. Crowding media (also called ficoll media) was prepared by adding 112.5 mg/ml of ficoll70 and 75 mg/ml ficoll400 (GE healthcare #17-0310-10 and 17-0300-10, respectively), 100 μM ascorbic acid, 1% Glutamax and 1% Penicillin and Streptomycin to EMEM media. Test compounds (dissolved in DMSO) were diluted into crowding media and then added to the cells. Final concentration of DMSO in crowding media was less than 0.3%. Cells were treated for 24 to 48 hr in a 37° C. incubator. At the end of the treatment period, cell media were collected. The level of PICP in the media were determined by a PICP ELISA assay (Quidel #8003) following the manufacturer's protocol. Potencies of test compounds were calculated by fitting PICP levels, relative to untreated controls, to log (inhibitor) vs. response equation using Graphpad Prism software 5.0 and expressed as pIC50.

Which IC50 does the source give for CCCCC[C@H](CN(O)C=O)C(=O)NCNC(=O)c1ccc(-c2cc(OC)cc(OC)c2)o1 [Example 52, (R)-5-(3,5-dimethoxyphenyl)-N-((2-((N-hydroxyformamido)methyl)heptanamido)methyl)furan-2-carboxamide] here?
Its IC50 is < 3.98 µM.

How did the IC50 turn out when CCCCC[C@H](CN(O)C=O)C(=O)NCNC(=O)c1ccc(-c2cc(OC)ccc2OC)o1 [Example 53, (R)-5-(2,5-dimethoxyphenyl)-N-((2-((N-hydroxyformamido)methyl)heptanamido)methyl)furan-2-carboxamide] was run?
Its IC50 is < 3.98 µM.

For CCCCC[C@H](CN(O)C=O)C(=O)NCNC(=O)c1ccc(-c2cccc(C(=O)O)c2OC)o1 [Example 55, (R)-3-(5-(((2-((N-hydroxyformamido)methyl)heptanamido)methyl)carbamoyl)furan-2-yl)-2-methoxybenzoic acid], which IC50 is on record?
Its IC50 is < 3.98 µM.

For CCCCC[C@H](CN(O)C=O)C(=O)NCNC(=O)c1ccc(-c2cccc(C(=O)O)c2F)o1 [Example 59, (R)-2-fluoro-3-(5-(((2-((N-hydroxyformamido)methyl)heptanamido)methyl)carbamoyl)furan-2-yl)benzoic acid], which IC50 is on record?
Its IC50 is < 3.98 µM.

With CCCCC[C@H](CN(O)C=O)C(=O)NCNC(=O)c1ccc(-c2cccc(CC(=O)O)c2)o1 [Example 60, (R)-2-(3-(5-(((2-((N-hydroxyformamido)methyl)heptanamido)methyl)carbamoyl)furan-2-yl)phenyl)acetic acid] as the molecule, how does the IC50 read?
Its IC50 is < 3.98 µM.

Which IC50 does the source give for CCCCC[C@H](CN(O)C=O)C(=O)NCNC(=O)c1ccc(-c2cccc(C(=O)O)c2C)o1 [Example 61, (R)-3-(5-(((2-((N-hydroxyformamido)methyl)heptanamido)methyl)carbamoyl)furan-2-yl)-2-methylbenzoic acid] here?
Its IC50 is < 3.98 µM.

With CCCCC[C@H](CN(O)C=O)C(=O)NCNC(=O)c1ccc(-c2ccc(O)c(C(=O)O)c2)o1 [Example 62, (R)-2-hydroxy-5-(5-(((2-((N-hydroxyformamido)methyl)heptanamido)methyl)carbamoyl)furan-2-yl)benzoic acid] as the molecule, how does the IC50 read?
Its IC50 is < 3.98 µM.

How did the IC50 turn out when CCCCC[C@H](CN(O)C=O)C(=O)NCNC(=O)c1ccc(-c2ccc(N)c(C(=O)O)c2)o1 [Example 64, (R)-2-amino-5-(5-(((2-((N-hydroxyformamido)methyl)heptanamido)methyl)carbamoyl)furan-2-yl)benzoic acid] was run?
Its IC50 is < 3.98 µM.

With CCCCC[C@@H](C(=O)NCNC(=O)c1ccc(-c2cccc(C(C)(C)C(=O)O)c2)o1)[C@@H](CC)N(O)C=O [Example 67, 2-(3-(5-((((R)-2-((R)-1-(N-hydroxyformamido)propyl)heptanamido)methyl)carbamoyl)furan-2-yl)phenyl)-2-methylpropanoic acid] as the molecule, how does the IC50 read?
The IC50 was < 3.98 µM.

How did the IC50 turn out when CCCCC[C@@H](C(=O)NCNC(=O)c1ccc(-c2cc(O)cc(OCC)c2)o1)[C@@H](CC)N(O)C=O [Example 73, 5-(3-ethoxy-5-hydroxyphenyl)-N-(((R)-2-((R)-1-(N-hydroxyformamido)propyl)heptanamido)methyl)furan-2-carboxamide] was run?
Its IC50 is < 3.98 µM.

Which IC50 does the source give for CCCCC[C@H](CN(O)C=O)C(=O)NCNC(=O)c1ccc(-c2cccc(C(C)C(=O)O)c2)o1 (stereo partly drawn) [Example 76, 2-(3-(5-((((R)-2-((N-hydroxyformamido)methyl)heptanamido)methyl)carbamoyl)furan-2-yl)phenyl)propanoic acid] here?
The IC50 was < 3.98 µM.

How did the IC50 turn out when CCCCC[C@H](CN(O)C=O)C(=O)NCNC(=O)c1ccc(-c2ccc(F)c(C(=O)O)c2F)o1 [Example 78] was run?
The IC50 was < 3.98 µM.

CCCCC[C@@H](C(=O)NCNC(=O)c1ccc(-c2cccc(C(=O)N[C@@H](CC(=O)O)C(=O)O)c2)o1)[C@@H](CC)N(O)C=O [Example 83, (S)-2-(3-(5-((((R)-2-((R)-1-(N-hydroxy-formamido)propyl)heptamido)methyl)carbamoyl)furan-2-yl)benzamido) succinic acid] was tested. Which IC50 did it give?
Its IC50 is < 3.98 µM.

CCCCC[C@@H](C(=O)NCNC(=O)c1ccc(-c2cc(OCC)cc(C(=O)N[C@H](CC(=O)O)C(=O)O)c2)o1)[C@@H](CC)N(O)C=O [Example 84, (R)-2-(3-ethoxy-5-(5-((((R)-2-((R)-1-(N-hydroxy-formamido)propyl)heptanamido)methyl)carbamoyl)furan-2-yl)benzamido) succinic acid] was tested. Which IC50 did it give?
The IC50 was < 3.98 µM.

CCCCC[C@@H](C(=O)NCNC(=O)c1ccc(-c2cc(OCC)cc(C(=O)NCC(=O)O)c2)o1)[C@@H](CC)N(O)C=O [Example 85, 2-(3-ethoxy-5-(5-((((R)-2-((R)-1-(N-hydroxy-formamido)propyl)heptanamido)methyl)carbamoyl)furan-2-yl)benzamido) acetic acid] was tested. Which IC50 did it give?
The IC50 was < 3.98 µM.

CCCCC[C@@H](C(=O)NCNC(=O)c1ccc(-c2cc(OCC)cc(C(=O)N(CC(=O)O)CC(=O)O)c2)o1)[C@@H](CC)N(O)C=O [Example 87, 2,2′-((3-ethoxy-5-(5-((((R)-2-((R)-1-(N-hydroxy-formamido)propyl)heptanamido)methyl)carbamoyl)furan-2-yl)benzoyl)azanediyl) diacetic acid] was tested. Which IC50 did it give?
The IC50 was < 3.98 µM.

How did the IC50 turn out when CCCCC[C@@H](C(=O)NCNC(=O)c1ccc(-c2cc(OCC)cc(C(=O)NC(CO)(CO)CO)c2)o1)[C@@H](CC)N(O)C=O [Example 88, 5-(3-((1,3-dihydroxy-2-(hydroxymethyl)propan-2-yl)carbamoyl)-5-ethoxyphenyl)-N—(((R)-2-((R)-1-(N-hydroxyformamido)propyl)heptanamido)methyl)furan-2-carboxamide] was run?
The IC50 was < 3.98 µM.

With CCCCC[C@H](CN(O)C=O)C(=O)NCNC(=O)c1ccc(-c2cccc(C(=O)O)c2)o1 [Example 89, (R)-3-(5-(((2-((N-hydroxyformamido)methyl)heptanamido)methyl)carbamoyl)furan-2-yl)benzoic acid] as the molecule, how does the IC50 read?
Its IC50 is < 3.98 µM.

For CCCCC[C@H](CN(O)C=O)C(=O)NCNC(=O)c1ccc(-c2ccc(F)c(C(=O)O)c2)o1 [Example 91, (R)-2-fluoro-5-(5-(((2-((N-hydroxy-formamido)methyl)heptanamido)methyl)carbamoyl)furan-2-yl)benzoic acid], which IC50 is on record?
Its IC50 is < 3.98 µM.

How did the IC50 turn out when CCCCC[C@H](CN(O)C=O)C(=O)NCNC(=O)c1ccc(-c2ccc(C(=O)O)cc2)o1 [Example 92, (R)-4-(5-(((2-((N-hydroxyformamido)methyl)heptanamido)methyl)carbamoyl)furan-2-yl)benzoic acid] was run?
Its IC50 is < 3.98 µM.

With CCCCC[C@H](CN(O)C=O)C(=O)NCNC(=O)c1ccc(-c2cccc(P(C)(=O)O)c2)o1 [Example 94, (3-(5-((((R)-2-((N-hydroxyformamido)methyl)heptanamido)methyl)carbamoyl)furan-2-yl)phenyl)(methyl)phosphinic acid] as the molecule, how does the IC50 read?
Its IC50 is < 3.98 µM.

With CCCCC[C@@H](C(=O)NCNC(=O)C1CCC(c2cc(OCC)cc(P(=O)(O)O)c2)O1)[C@@H](CC)N(O)C=O (stereo partly drawn) [Example 97, (3-ethoxy-5-(5-((((R)-2-((R)-1-(N-hydroxyformamido)propyl)heptanamido)methyl)carbamoyl)tetrahydrofuran-2-yl)phenyl)phosphonic acid] as the molecule, how does the IC50 read?
Its IC50 is < 3.98 µM.

Same assay, conditions: Homo sapiens, Cardiac fibroblast, read-out: pIC50, PICP cellular inhibition assay (converted)

How did the IC50 turn out when CCCCC[C@@H](C(=O)NCNC(=O)c1ccc(-c2cc(OCC)cc(C(=O)NCC[N+](C)(C)C)c2)o1)[C@@H](CC)N(O)C=O [Example 65, 2-(3-ethoxy-5-(5-((((R)-2-((R)-1-(N-hydroxyformamido)propyl)heptanamido)methyl)carbamoyl)furan-2-yl)benzamido)-N,N,N-trimethylethanaminium hydroxide] was run?
Its IC50 is < 3.98 µM.

CCCCC[C@@H](C(=O)NCNC(=O)c1ccc(-c2ccc(F)c(CC(=O)O)c2)o1)[C@@H](CC)N(O)C=O [Example 70, 2-(2-fluoro-5-(5-((((R)-2-((R)-1-(N-hydroxyformamido)propyl)heptanamido)methyl)carbamoyl)furan-2-yl)phenyl)acetic acid] was tested. Which IC50 did it give?
The IC50 was < 3.98 µM.

Which IC50 does the source give for CCCCC[C@@H](C(=O)NCNC(=O)c1ccc(-c2ccc(C(=O)O)cc2)o1)[C@@H](CC)N(O)C=O [Example 71, 4-(5-((((R)-2-((R)-1-(N-hydroxyformamido)propyl)heptanamido)methyl)carbamoyl)furan-2-yl)benzoic acid] here?
Its IC50 is < 3.98 µM.

CCCCC[C@@H](C(=O)NCNC(=O)c1ccc(-c2cc(CC(=O)O)cc(OCC)c2)o1)[C@@H](CC)N(O)C=O [Example 72, 2-(3-ethoxy-5-(5-((((R)-2-((R)-1-(N-hydroxyformamido)propyl)heptanamido)methyl)carbamoyl)furan-2-yl)phenyl)acetic acid] was tested. Which IC50 did it give?
The IC50 was < 3.98 µM.

CCCCC[C@H](CN(O)C=O)C(=O)NCNC(=O)c1ccc(-c2cccc(P(=O)(O)OC)c2)o1 [Example 95, methyl hydrogen (3-(5-((((R)-2-((N-hydroxyformamido)methyl)heptanamido)methyl)carbamoyl)furan-2-yl)phenyl)phosphonate] was tested. Which IC50 did it give?
The IC50 was < 3.98 µM.

Source: patent US10450288B2, “Hydroxy formamide derivatives and their use” (GLAXOSMITHKLINE INTELLECTUAL PROPERTY (NO.2) LIMITED, priority 2014, dated 2019)
